Data set [1] has as its target 5-HT6 receptor (Homo sapiens, UniProt P50406). As to the kind of experiment: Functional assay for 5-HT6 receptor, antagonist mode (aequorin, CHO-K1 cells). Set-up: expressed in transfected cells; host or cells: CHO-K1 (co-expressing mitochondrially targeted aequorin and G protein α16). It is filed as cell-based. The conditions noted are these: ±S.E.M., read-out: 5-HT6 R KB. The method, then: The studies were acquired according to previous protocols.[41] All the examined compounds (novel and the reference) were dissolved in DMSO (1 mM) and diluted accordingly using the assay buffer, directly in 96-well microplate. The recombinant CHO-K1 cells expressing human GPCR, mitochondrially targeted aequorin, and the promiscuous G protein α16 specific for 5-HT6 were used for the functional assay. The cells were thawed and suspended in the appropriate buffer containing DMEM/HAM’s F12 with 0.1% protease free BSA and were then centrifuged. After adding coelenterazine h to a final concentration of 5 μM, the cell pellet was resuspended in the buffer. The cell suspension was incubated at 16 °C for 16 h while being protected from light, gently shaken, and diluted with assay buffer to a concentration of 5000 cells/mL. Following that, 50 μL of the cell suspension was introduced to preloaded white opaque 96-well microplates containing the tested molecules. This was done using the automatic injectors integrated into the radiometric and luminescence plate counter MicroBeta2 LumiJET (PerkinElmer, USA). The light emission resulting from calcium mobilization was monitored for a duration of 60 s. For examination of the antagonistic properties of tested molecule, following 30 min of incubation, the reference agonist was administrated and the light emission was detected.

The nature of data set [2]: Stability under radioligand binding assay conditions (incubation with brain tissue). The class given is in vitro ADME. The note with it: after 1 h of incubation with brain tissue.
Data set [3] in a line: Thermodynamic solubility in PBS. It is filed as physicochemical. The note with it: Dulbecco’s phosphate buffered saline, 22 °C, aqueous buffer, thermodynamic from solid, PBS pH 7.4, rt.
Protocol: The temperature of the column was preserved at 30 °C. The experiment was conducted under the following conditions: a flow rate of 5 mL/min, eluent A (water/0.1% HCOOH), eluent B (MeCN/0.1% HCOOH), a gradient of starting from 0% of B to 100% of B over a duration of 3 min. Each sample was injected at a volume of 10 μL in triplicate. […] These solutions were then utilized to generate calibration curves by plotting AUC versus concentration in μg/mL. The examined molecules (2 mg) were dissolved in 1 mL of Dulbecco’s phosphate buffered saline (DPBS). The mixture was then continuously agitated at 22 °C for 24 h using a thermoshaker. Following this period, the mixtures were filtered through a cellulose acetate syringe filter (with a pore size of 0.22 μm), moved to a chromatographic vial, and analyzed. To quantify the investigated compounds, the areas beneath their respective peaks on DAD chromatograms were employed. Solubility was calculated using the calibration curves. […] All the experiments were performed in duplicate.
For data set [4], the system named is BV-2 microglia cells. As to the kind of experiment: Anti-inflammatory assessment in LPS-stimulated BV-2 cells (NO, ROS, IL-6, TNF-α). The class given is cell-based, mouse. The note with it: 10 μM pretreatment 1 h, then LPS 18 h. The method, then: Mouse microglial (BV-2) cell line was a generous gift from Prof. Bożena Kamińska-Kaczmarek of the Nencki Institute of Experimental Biology, Polish Academy of Sciences, Warsaw, Poland. The cell culture medium: Dulbecco’s modified with high glucose (DMEM, Glutamx ThermoFisher) and supplemented with 10% inactivated fetal bovine serum heat (ThermoFisher), 100 IU/mL penicillin (Merck) and 100 μg/mL streptomycin (Merck). Cell culture conditions: culture flasks (area 175 cm^2, Nunc), temperature of 37 °C, 5% CO2. For the assessment of the effect of tested compounds on the quantities of reactive oxygen species, nitric oxide, and inflammatory markers, the BV-2 cells were positioned in a 96-well culture plate (5 × 10^4 cells per well, Falcon). In the case of cell membrane damage assay, a 96-well culture plate (2 × 10^4 cells per well, Falcon) was used. The cells were cultured in the incubator (37 °C, 5% CO2) for 24 h prior to the assay. The tested compounds were dissolved in DMSO to achieve the concentration of 10^–2 M. Serial dilutions of the compounds were prepared in PBS and added directly to the medium containing adherent cells. The resulting mixtures were examined for any evidence of precipitation or opalescence before the assay. BV-2 cells were incubated with selected molecules (6, 16 at a concentration of 10 μM) during 1 h. Subsequently, lipopolysaccharide (100 ng/mL) was added and the resulting mixture was incubated for 18 h. Next, the culture supernatant was collected to measure the levels of nitric oxide (NO), reactive oxygen species (ROS), IL-6, and TNF-α according to the procedures described in detail below. All experiments were performed in duplicates, in three independent experiments.
The quantities of NO produced by the cells were determined using DAN reagent (2,3-diaminonaphthalene), rendering the method protocol described by Nussler et al.[48] After incubating at room temperature for 15 min, the fluorescence intensity (EX 360; EM 440 nm) was measured using a microplate reader POLARstar Omega from BMG Labtech. The amounts of NO were then calculated as a percentage of the control (which represents the maximal response of LPS). ROS measurement. The fluorescent dye 2,7-dichlorodihydrofluorescein diacetate (DCFH-DA)[49] was utilized to determine the quantity of ROS released by BV-2 cells. After a 30 min incubation period at 37 °C with 10 μM DCFH-DA, the fluorescence intensity (EX 490; EM 520 nm) was examined using a microplate reader POLARstar Omega from BMG Labtech. The amounts of ROS were then expressed as a percentage of the control (which represents the maximal response of LPS). The IL-6 and TNF-α levels detected in the culture supernatants were quantified using LANCE Ultra TR-FRET detection kit (PerkinElmer), rendering the manufacturer’s procedure. The detection of IL-6 and TNF-α was performed independently in a 384-well plate according to the instructions provided. To each well of the plate, 15 μL of sample was added followed by the addition of 5 μL of premixed antibody solution. After incubating IL-6 for 1 h and TNF-α for 3 h in the absence of light, at 22 °C, the plates were transferred to an EnVision plate reader (PerkinElmer). Measurements were conducted at 320 nm wavelength for excitation, at 615 nm for donor emission, and at 660 nm for acceptor emission. The final data were determined as the ratio of the 660 nm signal to the 615 nm signal. The results represent the levels of each cytokine determined as a percentage of control (considered as maximal cell response to LPS). The GraphPad program was used to conduct statistical analysis, with all outcomes presented as mean values with standard deviation (SD). Differences between groups were assessed using one-way ANOVA, followed by post hoc analysis (Dunnett’s multiple comparison tests). Results were considered statistically significant if the p-value was less than 0.05. […]

5-HT6 receptor, sequence (P50406 whole entry): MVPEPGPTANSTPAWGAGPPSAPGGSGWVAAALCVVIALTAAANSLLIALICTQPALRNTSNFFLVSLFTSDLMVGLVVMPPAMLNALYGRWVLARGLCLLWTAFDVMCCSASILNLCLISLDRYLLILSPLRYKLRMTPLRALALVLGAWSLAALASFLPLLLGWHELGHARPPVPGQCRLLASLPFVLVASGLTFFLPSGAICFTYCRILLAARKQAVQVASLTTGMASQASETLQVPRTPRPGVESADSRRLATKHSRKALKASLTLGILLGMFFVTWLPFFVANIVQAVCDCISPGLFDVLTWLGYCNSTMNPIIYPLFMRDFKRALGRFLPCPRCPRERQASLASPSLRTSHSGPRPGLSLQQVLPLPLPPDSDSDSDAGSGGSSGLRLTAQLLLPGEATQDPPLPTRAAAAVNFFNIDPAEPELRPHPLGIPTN

What is called Kb is the affinity of an antagonist, worked out from how it opposes an agonist. For orientation: solubility means how much of the substance goes into solution per volume. For `Cc1c(OCc2ccccc2)cccc1N1CCN(CCOC(=O)CCCN)CC1.Cl.Cl` [Compound 16, 1-(2-((4-Ammoniobutanoyl)oxy)ethyl)-4-(3-(benzyloxy)-2-methylphenyl)piperazin-1-ium Dichloride], the Kb in data set [1] is 11.9 ± 0.1 nM. Further, the “% of the compound remaining” value in data set [2] is on record as 98.21%. Besides, the solubility at 24 h in data set [3] was more than 2000 µg/mL. In data set [4], the “LPS-induced IL-6 production” value is “significantly decreased”, the “LPS-induced NO production” value was “significantly decreased”, the “LPS-induced ROS production” value is “significantly decreased” and the “LPS-induced TNF-α production” value is listed as “significantly decreased”.

The values above are taken from publication PMC10119930, “Dual Molecules Targeting 5-HT6 and GABA-A Receptors as a New Approach to Combat Depression Associated with Neuroinflammation” (ACS Chemical Neuroscience, 2023).
